In ChEMBL document CHEMBL1201862, “PubChem BioAssay data set” (2004):
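Five concentrations, 48 hours, 96-well plates. GI50 marks 50% less growth.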 Activity calls are given as the source filed them. Cut-off read from the data, not from the text of the source: active = GI50 up to about 1.1 µM and inactive = higher.

Assays:
Test in all cases: NCI tumour cell line growth inhibition, 48 h
A549 = system: A549
UACC-62 = system: UACC-62
TK-10 = system: TK-10
SK-MEL-5 = system: SK-MEL-5
HCT-15 = system: HCT-15
SF-268 = system: SF-268
NCI-H460 = system: NCI-H460
SF-539 = system: SF-539
HCT-116 = system: HCT-116
CCRF-CEM = system: CCRF-CEM
MCF7 = system: MCF7
OVCAR-4 = system: OVCAR-4
HL-60 = system: HL-60
HCC 2998 = system: HCC 2998
MOLT-4 = system: MOLT-4
NCI-H226 = system: NCI-H226
A498 = system: A498
LOX IMVI = system: LOX IMVI
HOP-92 = system: HOP-92
IGROV-1 = system: IGROV-1
PC-3 = system: PC-3
SNB-19 = system: SNB-19
Hs-578T = system: Hs-578T
NCI-H23 = system: NCI-H23
NCI-H522 = system: NCI-H522
T47D = system: T47D
MDA-N = system: MDA-N
CAKI-1 = system: CAKI-1
RPMI-8226 = system: RPMI-8226
MDA-MB-435 = system: MDA-MB-435
SK-OV-3 = system: SK-OV-3
786-0 = system: 786-0
Malme-3M = system: Malme-3M
RXF 393 = system: RXF 393
NCI/ADR-RES = system: NCI/ADR-RES
M14 = system: M14
HOP-62 = system: HOP-62
OVCAR-8 = system: OVCAR-8
OVCAR-5 = system: OVCAR-5
SN12C = system: SN12C
ACHN = system: ACHN
MDA-MB-231 = system: MDA-MB-231
COLO 205 = system: COLO 205
UACC-257 = system: UACC-257
DU-145 = system: DU-145
HT-29 = system: HT-29
EKVX = system: EKVX
SF-295 = system: SF-295
KM12 = system: KM12
SK-MEL-2 = system: SK-MEL-2
SNB-75 = system: SNB-75
UO-31 = system: UO-31
U-251 = system: U-251
OVCAR-3 = system: OVCAR-3
SW-620 = system: SW-620
SR = system: SR
K562 = system: K562
SK-MEL-28 = system: SK-MEL-28

## CC(=O)O[C@H]1C(=O)[C@@]2(C)C(C(OC(=O)c3ccccc3)[C@]3(O)CC(OC(=O)[C@H](OC(=O)CCC(=O)O)C(NC(=O)c4ccccc4)c4ccccc4)C(C)=C1C3(C)C)C1(OC(C)=O)COC1C[C@@H]2O (stereo partly drawn)
A549
  GI50: 0.0366 µM (active)
UACC-62
  GI50: < 0.0113 µM (active)
TK-10
  GI50: 0.136 µM (active)
SK-MEL-5
  GI50: < 0.0159 µM (active)
HCT-15
  GI50: 0.995 µM
SF-268
  GI50: 0.0252 µM (active)
NCI-H460
  GI50: < 0.0132 µM (active)
SF-539
  GI50: < 0.01 µM (active)
HCT-116
  GI50: < 0.01 µM (active)
CCRF-CEM
  GI50: < 0.01 µM (active)
MCF7
  GI50: < 0.01 µM (active)
OVCAR-4
  GI50: 31.8 µM (inactive)
HL-60
  GI50: < 0.01 µM (active)
HCC 2998
  GI50: 0.0302 µM (active)
MOLT-4
  GI50: < 0.0153 µM (active)
NCI-H226
  GI50: 0.0122 µM (active)
A498
  GI50: < 0.0118 µM (active)
LOX IMVI
  GI50: < 0.0105 µM (active)
HOP-92
  GI50: 0.656 µM (active)
IGROV-1
  GI50: < 0.0119 µM (active)
PC-3
  GI50: < 0.0128 µM (active)
SNB-19
  GI50: 0.0506 µM (active)
Hs-578T
  GI50: < 0.0175 µM (active)
NCI-H23
  GI50: 0.0193 µM (active)
NCI-H522
  GI50: < 0.01 µM (active)
T47D
  GI50: 0.0272 µM (active)
MDA-N
  GI50: < 0.01 µM (active)
CAKI-1
  GI50: 5.3 µM (inactive)
RPMI-8226
  GI50: < 0.01 µM (active)
MDA-MB-435
  GI50: < 0.01 µM (active)

## C=CCCCN(C(=O)c1ccccc1)c1ccc(C(=O)OC)o1
A549
  GI50: > 100 µM (inactive)
SK-OV-3
  GI50: > 100 µM (inactive)
786-0
  GI50: > 100 µM (inactive)
Malme-3M
  GI50: > 100 µM (inactive)
RXF 393
  GI50: > 100 µM (inactive)
UACC-62
  GI50: > 100 µM (inactive)
TK-10
  GI50: > 100 µM (inactive)
SK-MEL-5
  GI50: 31 µM (inactive)
HCT-15
  GI50: > 100 µM
NCI/ADR-RES
  GI50: 52.5 µM (inactive)
M14
  GI50: > 100 µM (inactive)
SF-268
  GI50: > 100 µM (inactive)
HOP-62
  GI50: > 100 µM (inactive)
NCI-H460
  GI50: > 100 µM (inactive)
SF-539
  GI50: > 100 µM (inactive)
OVCAR-8
  GI50: > 100 µM (inactive)
HCT-116
  GI50: 78 µM (inactive)
MCF7
  GI50: > 100 µM (inactive)
OVCAR-5
  GI50: > 100 µM (inactive)
SN12C
  GI50: > 100 µM (inactive)
OVCAR-4
  GI50: > 100 µM (inactive)
HL-60
  GI50: 19.3 µM (inactive)
ACHN
  GI50: > 100 µM (inactive)
MOLT-4
  GI50: 91.4 µM (inactive)
MDA-MB-231
  GI50: > 100 µM (inactive)
COLO 205
  GI50: 81.1 µM (inactive)
NCI-H226
  GI50: > 100 µM (inactive)
A498
  GI50: > 100 µM (inactive)
UACC-257
  GI50: > 100 µM (inactive)
LOX IMVI
  GI50: > 100 µM (inactive)
HOP-92
  GI50: > 100 µM (inactive)
IGROV-1
  GI50: > 100 µM (inactive)
PC-3
  GI50: 83.8 µM (inactive)
SNB-19
  GI50: > 100 µM (inactive)
DU-145
  GI50: > 100 µM (inactive)
HT-29
  GI50: > 100 µM (inactive)
Hs-578T
  GI50: > 100 µM (inactive)
NCI-H23
  GI50: > 100 µM (inactive)
NCI-H522
  GI50: 64.3 µM (inactive)
EKVX
  GI50: > 100 µM (inactive)
T47D
  GI50: 34 µM (inactive)
MDA-N
  GI50: 51.9 µM (inactive)
SF-295
  GI50: > 100 µM (inactive)
CAKI-1
  GI50: > 100 µM (inactive)
KM12
  GI50: 95.1 µM (inactive)
SK-MEL-2
  GI50: > 100 µM (inactive)
SNB-75
  GI50: > 100 µM (inactive)
UO-31
  GI50: > 100 µM (inactive)

## N#Cc1[nH]c(=O)n(-c2ccc([N+](=O)[O-])cc2)c1N
A549
  GI50: > 10 µM (inactive)
SK-OV-3
  GI50: > 10 µM (inactive)
786-0
  GI50: > 10 µM (inactive)
Malme-3M
  GI50: > 10 µM (inactive)
U-251
  GI50: > 10 µM (inactive)
RXF 393
  GI50: > 10 µM (inactive)
OVCAR-3
  GI50: > 10 µM (inactive)
UACC-62
  GI50: > 10 µM (inactive)
SW-620
  GI50: > 10 µM (inactive)
TK-10
  GI50: > 10 µM (inactive)
SK-MEL-5
  GI50: > 10 µM (inactive)
HCT-15
  GI50: > 10 µM
NCI/ADR-RES
  GI50: > 10 µM (inactive)
M14
  GI50: > 10 µM (inactive)
SF-268
  GI50: > 10 µM (inactive)
HOP-62
  GI50: > 10 µM (inactive)
NCI-H460
  GI50: 7.64 µM (inactive)
SF-539
  GI50: > 10 µM (inactive)
OVCAR-8
  GI50: > 10 µM (inactive)
HCT-116
  GI50: > 10 µM (inactive)
CCRF-CEM
  GI50: > 10 µM (inactive)
OVCAR-5
  GI50: > 10 µM (inactive)
SR
  GI50: > 10 µM (inactive)
SN12C
  GI50: > 10 µM (inactive)
OVCAR-4
  GI50: > 10 µM (inactive)
HL-60
  GI50: > 10 µM (inactive)
ACHN
  GI50: > 10 µM (inactive)
K562
  GI50: > 10 µM (inactive)
HCC 2998
  GI50: > 10 µM (inactive)
MOLT-4
  GI50: > 10 µM (inactive)
MDA-MB-231
  GI50: > 10 µM (inactive)
COLO 205
  GI50: > 10 µM (inactive)
NCI-H226
  GI50: > 10 µM (inactive)
A498
  GI50: > 10 µM (inactive)
UACC-257
  GI50: > 10 µM (inactive)
LOX IMVI
  GI50: > 10 µM (inactive)
HOP-92
  GI50: > 10 µM (inactive)
IGROV-1
  GI50: > 10 µM (inactive)
PC-3
  GI50: > 10 µM (inactive)
SNB-19
  GI50: > 10 µM (inactive)
DU-145
  GI50: > 10 µM (inactive)
HT-29
  GI50: > 10 µM (inactive)
Hs-578T
  GI50: > 10 µM (inactive)
NCI-H23
  GI50: > 10 µM (inactive)
NCI-H522
  GI50: > 10 µM (inactive)
EKVX
  GI50: > 10 µM (inactive)
T47D
  GI50: > 10 µM (inactive)
MDA-N
  GI50: > 10 µM (inactive)
SK-MEL-28
  GI50: > 10 µM (inactive)
SF-295
  GI50: > 10 µM (inactive)
RPMI-8226
  GI50: > 10 µM (inactive)
SK-MEL-2
  GI50: > 10 µM (inactive)
SNB-75
  GI50: > 10 µM (inactive)
MDA-MB-435
  GI50: > 10 µM (inactive)
UO-31
  GI50: > 10 µM (inactive)
